Values of other authors as cited in publication PMC7886095 (Drug Design, Development and Therapy, 2021).

- aqueous solubility: < 1 µg/mL
SMILES: COc1cc(O)c2c(=O)cc(-c3ccc(O)cc3)oc2c1 [GKA, Genkwanin]
